Test results taken from US20180155386A1, “PROGESTERONE ANTAGONISTS” (Evestra, Inc., priority 2011, published 2018).

What was measured:
[1] = tested on: nidation (implantation) sites in pregnant rats; experiment: Antinidation test in rat; type: in vivo, rats (Sprague-Daley); settings: rats with implantation sites / rats treated; 3 mg/day s.c. from day 5 of pregnancy, counted at day 9; 0/3 = full progesterone antagonist
Description: For every compound to be screened in rats (Sprague-Daley) 3 control rats (vehicle treated, s.c.), 3 rats treated (s.c.) with a known progestin antagonist and 3 rats treated (s.c.) with the test compound (3 mg/day) are used. Female rats will be placed with male rats for 3 to 4 days and exam the vagina for sperm plugs every morning. The presence of a sperm plug will indicate day 1 of pregnancy. Pregnant rats will be treated daily with 3 mg of the screened compound at beginning on day 5 of pregnancy. At day 9 of gestation the rats will be euthanized and nidation sites counted.

[2] = tested on: human breast cancer cell line T47D; experiment: In vitro antiproliferative activity in human breast cancer cell line T47D (MTT); type: cell-based; settings: 168 h, T47D cells, 7 days after cell seeding
Description: Cells from frozen stock were expanded in T75 cell culture flasks. For the experiment, cells in the logarithmic growth phase (70% confluent) were cultivated for 3 day without estradiol and then washed with PBS, detached by trypsination and suspended in 5 ml of fresh RPMI-1640 medium. Cells were centrifuged for 5 min at 1000 rpm and the pellet was resuspended in RPMI-1640 medium.
Cells were seeded in 96-well plates with a density of 5000 cells/well/in 0.18 mL RPMI-1640 medium. Cells were allowed to attach for 24 h. Visual control for viability at 24 h and cell culture medium change. At this time point, compounds were added in 20 μl to the final concentration. After 3 days medium and compounds where changed again. Finally, 7 days after cell seeding, 20 μl MTT-solution was added to each well and 4 h later the formed tetrazolium salt was measured with a photometer.

[3] = tested on: uterine weight of non-pregnant guinea pigs; experiment: Uterine weights of guinea pigs; type: in vivo; settings: 10 mg s.c. from day 10 of cycle; sacrifice day 18; untreated guinea pig 1.2 g; higher than 1.2 g indicates pure progesterone antagonistic activity
Description: 3 Non-pregnant guinea pigs in the luteal phase of the cycle will be treated with 10 mg of the compound subcutaneously beginning on day 10 of the cycle. Animals were sacrificed on day 18 after the start of the treatment and the uterine weights were obtained at the time of sacrifice. Comparisons will be made to onapristone-treated animals at 10 mg/animal/day s.c

[4] = biological target: T1, progesterone receptor-LBD-UAS-bla HEK 293T cells (Homo sapiens, UniProt P06401); experiment: Progesterone Antagonist Screen (GeneBLAzer Beta-lactamase reporter, activated by control agonist R5020); type: cell-based; settings: values relative to RU486, which is 100%; HEK 293T reporter cells, agonist R5020 at EC80
T1 construct: host or cells: HEK 293T
T1 sequence (P06401 679-913 limits assumed): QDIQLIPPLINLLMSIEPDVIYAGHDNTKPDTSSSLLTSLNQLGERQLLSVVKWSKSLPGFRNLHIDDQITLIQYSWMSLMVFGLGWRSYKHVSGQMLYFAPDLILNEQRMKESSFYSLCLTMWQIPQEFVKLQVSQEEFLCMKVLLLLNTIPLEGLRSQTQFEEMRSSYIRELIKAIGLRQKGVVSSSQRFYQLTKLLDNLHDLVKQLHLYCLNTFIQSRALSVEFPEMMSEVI
Description: Determination of the agonist/antagonist nature of the test compounds was carried out using Invitrogen's SelectScreen™ Cell-based nuclear receptor profiling service which uses the GeneBLAzer® Beta-lactamase reporter technology. Basically this assay uses a Beta-lactamase cDNA under transcriptional control of an Upstream Activator Sequence (UAS). The UAS is activated by the GAL4 transcription factor DNA binding domain (DBD), which is expressed as a fusion protein with the target receptor ligand binding domain (LBD). Upon ligand binding, the GAL4(DBD)-NR(LDB) binds to the UAS, which controls transcription of Beta-lactamase. Beta-lactamase cleaves a special engineered fluorescent substrate which results in a change in the measured fluorescence wavelength.
The generalized protocol used for the Progesterone Antagonist Screen, activated by control Agonist R5020 is as follows:
The progesterone receptor-LBD-UAS-bla HEK 293T cells are thawed and prepared as described above for the Agonist screen. 4 μL of a 10× serial dilution of control antagonist RU-486 (starting concentration, 100 nM) or test compounds are added to appropriate wells of a TC-Treated assay plate. 32 μL of cell suspension is added to the wells which is then pre-incubated at 37° C./5% CO2 in a humidified incubator with test compounds and control antagonist titration for 30 minutes. 4 μL of a 10× control agonist (see above) at the predetermined EC80 concentration is added to wells containing the control antagonist or test compounds. The plate is incubated for 16-24 hours at 37° C./5% CO2 in a humidified incubator. 8 μL of 1 μM Substrate Loading Solution is added to each well and the plate is incubated for 2 hours at room temperature. The plate is then read on a fluorescence plate reader (Tecan Safire).

Compound	Implantation Sites [1]	IC50 [2]	Uterine Weights of Guinea Pigs Treated with antiprogestins (grams) [3]	Emax [4]
CC(=O)c1ccc([C@H]2C[C@@]3(C)[C@@H](CC[C@@]3(O)C#CC(F)(F)F)[C@@H]3CCC4=CC(=O)CCC4=C32)cc1 [Compound 1a, 11β-(4′-Acetylphenyl)-17β-hydroxy-17-(3,3,3-trifluoro-1-propynyl)-estra-4,9-diene-3-one]	1/3	17000 pM	1.3 grams	6%
C=CC(F)(F)[C@]1(O)CC[C@H]2[C@@H]3CCC4=CC(=O)CCC4=C3[C@@H](c3ccc(C(C)=O)cc3)C[C@@]21C [Compound 1d, 11β-(4′-Acetylphenyl)-17β-hydroxy-17-(1,1-difluoroprop-2-enyl)-estra-4,9-diene-3-one]	–	300 pM	–	119%
CCC(F)(F)[C@]1(O)CC[C@H]2[C@@H]3CCC4=CC(=O)CCC4=C3[C@@H](c3ccc(C(C)=O)cc3)C[C@@]21C [Compound 1e, 11β-(4′-Acetyl-phenyl)-17β-hydroxy-17-(1,1-difluoropropyl)-estra-4,9-diene-3-one]	–	300 pM	–	191%
CC#C[C@]1(O)CC[C@H]2[C@@H]3CCC4=CC(=O)CCC4=C3[C@@H](c3ccc(C(=O)C4CC4)cc3)C[C@@]21C [Compound 2b, 11β-(4′-[Cyclopropylcarbonyl]phenyl)-17β-hydroxy-17-(1-propynyl)-estra-4,9-diene-3-one]	–	640 pM	–	45%
C[C@]12C[C@H](c3ccc(C(=O)C4CC4)cc3)C3=C4CCC(=O)C=C4CC[C@H]3[C@@H]1CC[C@@]2(O)CCCO [Compound 2c, 11β-(4′-[Cyclopropylcarbonyl]phenyl)-17β-hydroxy-17-(3-hydroxypropyl)-estra-4,9-diene-3-one]	–	4600 pM	1.35 grams	2%
C[C@]12C[C@H](c3ccc(C(=O)C4CC4)cc3)C3=C4CCC(=O)C=C4CCC3C1CC[C@@]2(O)/C=C\CO (stereo partly drawn) [Compound 2d, 11β-(4′-[Cyclopropylcarbonyl]phenyl)-17β-hydroxy-17-(3-hydroxyprop-1(Z)-enyl)-estra-4,9-diene-3-one]	–	–	0.99 grams	6%
C=C1CCO[C@]12CCC1C3CCC4=CC(=O)CCC4=C3[C@@H](c3ccc(C(=O)C4CC4)cc3)C[C@@]12C (stereo partly drawn) [Compound 2e, 11β-(4′-[Cyclopropylcarbonyl]phenyl)-17,23-epoxy-19,24-dinor-17α-chola-4,9,20-triene-3-one]	–	370 pM	1.02 grams	48%
C[C@]12C[C@H](c3ccc(-c4cccnc4)cc3)C3=C4CCC(=O)C=C4CCC3C1CC[C@@]2(O)/C=C/C(F)(F)F (stereo partly drawn) [Compound 3a, 11β-(4′-[3-Pyridinyl]phenyl)-17β-hydroxy-17-(3,3,3-trifluoroprop-1(E)-enyl)-estra-4,9-diene-3-one]	0/4	–	0.87 grams	190%
C=CC(F)(F)[C@]1(O)CC[C@H]2[C@@H]3CCC4=CC(=O)CCC4=C3[C@@H](c3ccc(-c4cccnc4)cc3)C[C@@]21C [Compound 3b, 11β-(4′-[3-Pyridinyl]phenyl)-17β-hydroxy-17-(1,1-difluoroprop-2-enyl)-estra-4,9-diene-3-one]	0/4	–	–	200%
CC#C[C@]1(O)CC[C@H]2[C@@H]3CCC4=CC(=O)CCC4=C3[C@@H](c3ccc(C(=O)c4ccc(C#N)cc4)cc3)C[C@@]21C [Compound 4, 11β-(4′-[4-Cyanobenzoyl]phenyl)-17β-hydroxy-17-(1-propynyl)-estra-4,9-diene-3-one]	–	–	–	38%
CN(C)c1ccc([C@H]2C[C@]3(C)[C@@H](CC[C@]3(O)CCCO)[C@@H]3CCC4=CC(=O)CCC4=C32)cc1 [ZK98299, reference compound]	2/3	–	1.07 grams	–
